Source: patent US20150087627A1, “COMBINATION OF KINASE INHIBITORS AND USES THEREOF” (Intellikine LLC, priority 2011, published 2015)
Structures can show the parent of a compound that is named as a salt. Where two headings read alike, the source gives them in different places.

Legend:
PC3 = PC3 proliferation; assay type: cell-based; conditions: Homo sapiens, PC-3
PI3K α (p110α/p85α) = molecular target: T1, PI3K α (p110α/p85α) (Homo sapiens, UniProt P42336); test: PI 3-Kinase (human) HTRF assay, PI3K α; assay type: biochemical
T1 construct: purchased Upstate / Millipore Corporation

mTOR = molecular target: T2, mTOR (Homo sapiens, UniProt P42345); test: mTOR kinase inhibition assay (radiometric or LanthaScreen TR-FRET); assay type: biochemical; conditions: read-out: mTORC IC50
T2 construct: purchased Invitrogen
Protocol: The cross-activity or lack thereof of one or more compounds of the present invention against mTor can be measured according to any procedures known in the art or methods disclosed below.
The compounds described herein can be tested against recombinant mTOR (Invitrogen) in an assay containing 50 mM HEPES, pH 7.5, 1 mM EGTA, 10 mM MgCl2, 2.5 mM, 0.01% Tween, 10 μM ATP (2.5 μCi of μ-32P-ATP), and 3 μg/mL BSA. Rat recombinant PHAS-1/4EBP1 (Calbiochem; 2 mg/mL) is used as a substrate. Reactions are terminated by spotting onto nitrocellulose, which is washed with 1M NaCl/1% phosphoric acid (approximately 6 times, 5-10 minutes each). Sheets are dried and the transferred radioactivity quantitated by phosphorimaging.
For instance, one can use Invitrogen's LanthaScreen™ Kinase assay to test the inhibitors of mTOR disclosed herein. This assay is a time resolved FRET platform that measures the phosphorylation of GFP labeled 4EBP1 by mTOR kinase. The kinase reaction is performed in a white 384 well microtiter plate. The total reaction volume is 20 ul per well and the reaction buffer composition is 50 mM HEPES pH7.5, 0.01% Polysorbate 20, 1 mM EGTA, 10 mM MnCl2, and 2 mM DTT. In the first step, each well receives 2 ul of test compound in 20% dimethylsulphoxide resulting in a 2% DMSO final concentration. […] The plate is sealed and incubated for 1 hour at room temperature. […] The plate is sealed, incubated for 1 hour at room temperature, and then read on a plate reader set up for LanthaScreen™ TR-FRET. Data is analyzed and IC50s are generated using GraphPad Prism 5.

PI3K γ (p110γ) = molecular target: T3, PI3K γ (p110γ) (Homo sapiens, UniProt P48736); test: PI 3-Kinase (human) HTRF assay, PI3K γ; assay type: biochemical
T3 construct: purchased Upstate / Millipore Corporation

PI3K β (p110β/p85α) = molecular target: T4, PI3K β (p110β/p85α) (Homo sapiens, UniProt P42338); test: PI 3-Kinase (human) HTRF assay, PI3K β; assay type: biochemical
T4 construct: purchased Upstate / Millipore Corporation

PI3K δ = molecular target: T5, PI3K δ (Homo sapiens, UniProt O00329); test: PI 3-Kinase (human) HTRF assay, PI3K δ; assay type: biochemical; conditions: read-out: PI3K δ IC50
T5 construct: purchased Upstate / Millipore Corporation
Protocol: Briefly, the assay is a time resolved FRET assay that indirectly measures PIP3 product formed by the activity of a PI3-K. The kinase reaction is performed in a microtiter plate (e.g., a 384 well microtiter plate). The total reaction volume is approximately 20 ul per well. In the first step, each well receives 2 ul of test compound in 20% dimethylsulphoxide resulting in a 2% DMSO final concentration. […] The plate is sealed and incubated for 15 minutes at room temperature. […] The plate is sealed and incubated for 1 hour at room temperature. The reaction is stopped by adding 5 ul of Stop Solution per well and then 5 ul of Detection Mix is added per well. The plate is sealed, incubated for 1 hour at room temperature, and then read on an appropriate plate reader. Data is analyzed and IC50s are generated using GraphPad Prism 5.

T47D = T47D proliferation; assay type: cell-based; conditions: Homo sapiens; T47D cell line
[1] = clinical use of the marketed drug; cited from earlier work
[2] = PC3 cell line (compounds before 438), read-out: PC3 proliferation (nM)*
[3] = Table 2 (mTor inhibitor compounds), PC3, read-out: PC3 proliferation

T1 sequence (P42336 whole entry): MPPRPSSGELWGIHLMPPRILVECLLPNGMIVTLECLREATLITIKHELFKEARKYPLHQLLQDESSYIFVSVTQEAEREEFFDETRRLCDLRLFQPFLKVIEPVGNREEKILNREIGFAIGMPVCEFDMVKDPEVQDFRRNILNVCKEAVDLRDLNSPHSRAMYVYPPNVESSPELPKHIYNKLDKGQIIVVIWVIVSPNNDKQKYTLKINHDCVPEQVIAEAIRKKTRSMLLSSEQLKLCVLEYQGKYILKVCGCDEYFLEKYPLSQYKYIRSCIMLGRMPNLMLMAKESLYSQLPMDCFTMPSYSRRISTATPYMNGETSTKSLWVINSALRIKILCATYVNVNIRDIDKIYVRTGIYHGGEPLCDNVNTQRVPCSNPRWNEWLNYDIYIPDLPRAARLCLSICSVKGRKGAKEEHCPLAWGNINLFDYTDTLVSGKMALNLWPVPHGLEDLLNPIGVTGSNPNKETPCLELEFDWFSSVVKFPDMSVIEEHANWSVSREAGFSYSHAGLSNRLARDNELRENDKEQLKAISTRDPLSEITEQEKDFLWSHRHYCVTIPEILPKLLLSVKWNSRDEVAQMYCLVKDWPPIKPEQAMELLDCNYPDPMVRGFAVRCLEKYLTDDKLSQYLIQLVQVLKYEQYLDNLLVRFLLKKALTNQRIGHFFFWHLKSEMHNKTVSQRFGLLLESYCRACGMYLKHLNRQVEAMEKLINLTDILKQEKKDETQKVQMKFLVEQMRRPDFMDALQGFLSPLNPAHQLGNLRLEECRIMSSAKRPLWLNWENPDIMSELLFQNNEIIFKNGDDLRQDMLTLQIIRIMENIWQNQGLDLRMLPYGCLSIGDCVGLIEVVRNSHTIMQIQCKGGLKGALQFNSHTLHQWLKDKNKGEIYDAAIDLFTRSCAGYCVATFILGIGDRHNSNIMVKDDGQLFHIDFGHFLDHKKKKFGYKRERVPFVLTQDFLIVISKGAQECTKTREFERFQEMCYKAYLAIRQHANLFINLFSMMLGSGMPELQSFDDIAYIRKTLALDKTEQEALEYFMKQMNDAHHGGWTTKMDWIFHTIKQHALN
T1 sequence (P27986 whole entry partner): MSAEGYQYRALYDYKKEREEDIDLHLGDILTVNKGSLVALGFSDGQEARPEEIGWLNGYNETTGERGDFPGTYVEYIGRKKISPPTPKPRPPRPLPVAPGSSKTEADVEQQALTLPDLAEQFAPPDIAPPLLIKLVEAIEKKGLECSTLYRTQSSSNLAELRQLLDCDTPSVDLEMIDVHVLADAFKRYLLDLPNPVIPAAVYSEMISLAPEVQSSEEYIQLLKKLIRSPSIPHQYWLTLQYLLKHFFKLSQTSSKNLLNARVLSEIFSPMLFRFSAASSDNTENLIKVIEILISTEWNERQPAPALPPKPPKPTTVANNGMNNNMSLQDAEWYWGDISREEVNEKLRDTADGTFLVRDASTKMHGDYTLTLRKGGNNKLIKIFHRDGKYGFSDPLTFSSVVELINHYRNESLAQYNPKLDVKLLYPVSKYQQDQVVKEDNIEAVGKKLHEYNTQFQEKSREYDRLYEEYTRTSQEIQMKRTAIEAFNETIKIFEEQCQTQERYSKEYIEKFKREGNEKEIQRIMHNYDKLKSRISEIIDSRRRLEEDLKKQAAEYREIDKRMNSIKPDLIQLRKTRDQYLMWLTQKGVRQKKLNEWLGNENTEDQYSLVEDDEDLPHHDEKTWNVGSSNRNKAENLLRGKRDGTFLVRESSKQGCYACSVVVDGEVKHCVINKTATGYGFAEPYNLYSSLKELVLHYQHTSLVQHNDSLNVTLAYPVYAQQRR
T5 sequence (O00329 whole entry): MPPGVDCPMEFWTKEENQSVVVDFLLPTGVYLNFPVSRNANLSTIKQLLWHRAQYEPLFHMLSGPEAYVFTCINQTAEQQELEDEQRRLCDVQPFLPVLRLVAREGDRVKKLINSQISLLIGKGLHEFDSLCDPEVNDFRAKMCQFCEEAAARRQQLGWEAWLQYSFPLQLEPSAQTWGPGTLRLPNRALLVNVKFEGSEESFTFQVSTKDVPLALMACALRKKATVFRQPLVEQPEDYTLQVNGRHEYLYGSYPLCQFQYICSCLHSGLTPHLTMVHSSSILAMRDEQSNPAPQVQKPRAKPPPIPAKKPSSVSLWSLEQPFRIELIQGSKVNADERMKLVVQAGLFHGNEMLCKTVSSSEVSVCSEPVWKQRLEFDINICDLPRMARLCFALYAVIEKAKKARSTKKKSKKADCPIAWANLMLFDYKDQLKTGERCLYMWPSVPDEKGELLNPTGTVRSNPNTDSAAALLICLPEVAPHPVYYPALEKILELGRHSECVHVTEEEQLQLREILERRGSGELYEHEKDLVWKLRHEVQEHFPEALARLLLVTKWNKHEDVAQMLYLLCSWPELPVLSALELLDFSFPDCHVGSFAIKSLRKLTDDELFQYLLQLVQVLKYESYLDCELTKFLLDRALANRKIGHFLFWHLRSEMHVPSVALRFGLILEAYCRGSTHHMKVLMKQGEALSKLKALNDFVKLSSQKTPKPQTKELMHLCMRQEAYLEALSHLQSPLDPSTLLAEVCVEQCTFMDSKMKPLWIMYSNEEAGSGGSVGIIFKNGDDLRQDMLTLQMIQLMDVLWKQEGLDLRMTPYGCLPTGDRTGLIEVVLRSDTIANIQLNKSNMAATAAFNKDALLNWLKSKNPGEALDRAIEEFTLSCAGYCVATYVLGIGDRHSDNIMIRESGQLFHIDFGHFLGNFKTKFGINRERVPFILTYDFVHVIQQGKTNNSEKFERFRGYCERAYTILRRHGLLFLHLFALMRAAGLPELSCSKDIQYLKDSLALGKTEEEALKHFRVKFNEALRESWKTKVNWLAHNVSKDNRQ
T5 sequence (P27986 whole entry partner): as the sequence (P27986 whole entry partner) above
T3 sequence (P48736 whole entry): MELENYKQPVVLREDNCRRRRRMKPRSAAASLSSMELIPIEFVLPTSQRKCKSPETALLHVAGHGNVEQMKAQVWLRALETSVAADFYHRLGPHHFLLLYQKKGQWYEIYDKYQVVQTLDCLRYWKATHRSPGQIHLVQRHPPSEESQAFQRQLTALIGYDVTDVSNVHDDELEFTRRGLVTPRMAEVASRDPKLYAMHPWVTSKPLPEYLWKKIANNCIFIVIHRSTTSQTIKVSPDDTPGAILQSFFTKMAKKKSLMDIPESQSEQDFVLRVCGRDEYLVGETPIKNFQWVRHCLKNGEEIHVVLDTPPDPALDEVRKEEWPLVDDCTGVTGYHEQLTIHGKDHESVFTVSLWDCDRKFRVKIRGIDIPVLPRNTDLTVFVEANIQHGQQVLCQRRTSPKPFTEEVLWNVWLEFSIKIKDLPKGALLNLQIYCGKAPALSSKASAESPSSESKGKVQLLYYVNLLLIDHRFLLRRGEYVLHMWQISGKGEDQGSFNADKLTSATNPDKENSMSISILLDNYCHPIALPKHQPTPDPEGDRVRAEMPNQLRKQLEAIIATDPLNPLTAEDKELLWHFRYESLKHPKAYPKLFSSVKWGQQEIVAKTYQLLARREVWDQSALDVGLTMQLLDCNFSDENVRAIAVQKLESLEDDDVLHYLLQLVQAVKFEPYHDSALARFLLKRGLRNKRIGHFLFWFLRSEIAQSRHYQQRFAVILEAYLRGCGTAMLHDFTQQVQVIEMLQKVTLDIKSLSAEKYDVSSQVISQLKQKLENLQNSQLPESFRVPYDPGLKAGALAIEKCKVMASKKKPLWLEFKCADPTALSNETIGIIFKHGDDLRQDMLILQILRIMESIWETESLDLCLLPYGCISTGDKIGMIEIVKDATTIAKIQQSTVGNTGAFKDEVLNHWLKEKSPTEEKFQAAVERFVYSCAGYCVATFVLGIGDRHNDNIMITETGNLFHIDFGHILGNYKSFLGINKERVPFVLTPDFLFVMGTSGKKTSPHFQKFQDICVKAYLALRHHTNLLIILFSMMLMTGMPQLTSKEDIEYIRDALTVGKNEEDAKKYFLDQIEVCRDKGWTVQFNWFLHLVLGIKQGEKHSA
T4 sequence (P42338 whole entry): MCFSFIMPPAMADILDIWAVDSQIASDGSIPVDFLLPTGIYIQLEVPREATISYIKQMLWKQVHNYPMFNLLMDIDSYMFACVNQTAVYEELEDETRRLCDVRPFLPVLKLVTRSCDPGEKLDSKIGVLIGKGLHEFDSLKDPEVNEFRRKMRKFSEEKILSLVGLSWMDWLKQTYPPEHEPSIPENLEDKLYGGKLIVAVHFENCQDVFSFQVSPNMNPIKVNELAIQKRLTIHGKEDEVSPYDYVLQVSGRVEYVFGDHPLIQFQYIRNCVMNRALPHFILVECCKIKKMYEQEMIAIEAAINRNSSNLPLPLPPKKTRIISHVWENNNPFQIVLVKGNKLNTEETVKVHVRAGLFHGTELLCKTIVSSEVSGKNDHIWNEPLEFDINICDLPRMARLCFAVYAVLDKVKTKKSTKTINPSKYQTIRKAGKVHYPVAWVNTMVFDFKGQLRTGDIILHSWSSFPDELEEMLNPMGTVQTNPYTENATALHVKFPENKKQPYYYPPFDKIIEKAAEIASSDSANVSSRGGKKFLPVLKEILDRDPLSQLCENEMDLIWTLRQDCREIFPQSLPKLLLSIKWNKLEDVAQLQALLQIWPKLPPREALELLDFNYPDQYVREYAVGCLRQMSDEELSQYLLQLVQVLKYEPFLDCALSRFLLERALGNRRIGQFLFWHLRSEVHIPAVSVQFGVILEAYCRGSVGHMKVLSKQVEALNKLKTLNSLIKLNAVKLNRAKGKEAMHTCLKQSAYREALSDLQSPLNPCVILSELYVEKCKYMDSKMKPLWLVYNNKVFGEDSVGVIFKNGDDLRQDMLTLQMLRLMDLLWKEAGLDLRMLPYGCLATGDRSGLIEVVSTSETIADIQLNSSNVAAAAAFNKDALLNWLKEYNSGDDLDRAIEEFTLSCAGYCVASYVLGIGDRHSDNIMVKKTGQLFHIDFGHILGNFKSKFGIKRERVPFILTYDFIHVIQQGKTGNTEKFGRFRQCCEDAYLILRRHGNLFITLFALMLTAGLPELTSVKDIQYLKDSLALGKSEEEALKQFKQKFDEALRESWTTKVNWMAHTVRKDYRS
T4 sequence (P27986 whole entry partner): as the sequence (P27986 whole entry partner) above

SMILES	IC50 (PI3K α (p110α/p85α); read-out: PI3K α IC50)	IC50 (mTOR)	IC50 (PI3K γ (p110γ); read-out: PI3K γ IC50)	IC50 (PI3K β (p110β/p85α); read-out: PI3K β IC50)	IC50 (PI3K δ)	IC50 (T47D)	further results
CC(=O)Nc1nc2ccc(-c3ccc4nccc(-c5ccncc5)c4c3)cc2s1 [Compound 2]	< 1000 nM	> 10000 nM	< 1000 nM	> 10000 nM	> 10000 nM		IC50 (PC3; [2]): < 10000 nM
Nc1nc2ccc(-c3ccc4nccc(-c5ccncc5)c4c3)cc2o1 [Compound 4]	< 100 nM	< 1000 nM		< 100 nM	< 100 nM		IC50 (PC3; [2]): < 100 nM
Nc1nc2cc(-c3ccc4ncc(-c5ccncc5)n4c3)ccc2o1 [Compound 6]	< 100 nM	< 10000 nM		< 10000 nM	< 1000 nM	< 1000 nM	IC50 (PC3; [2]): < 10000 nM
Cn1c(=O)n(-c2ccc(C(C)(C)C#N)cc2)c2c3cc(-c4ccc5oc(N)nc5c4)ccc3ncc21 [Compound 7]	< 100 nM	< 100 nM	< 100 nM	< 100 nM	< 100 nM		IC50 (PC3; [2]): < 100 nM
Nc1nc2cc(-c3ccc4ncn(-c5ccccc5)c4c3)ccc2o1 [Compound 11]	< 100 nM	> 10000 nM		< 10000 nM			IC50 (PC3; [2]): > 10000 nM
Nc1noc2cc(-c3ccc4nccc(-c5ccncc5)c4c3)ccc12 [Compound 16]	< 100 nM			< 10000 nM	< 10000 nM	< 1000 nM	
CC(C)n1nc(-c2cc3ccc(C#N)cc3[nH]2)c2c(N)ncnc21 [Compound 24]							IC50 (PC3; [3]): > 500 nM
CC(C)n1nc(-c2cc3ccc(C(N)=O)cc3[nH]2)c2c(N)ncnc21 [Compound 25]							IC50 (PC3; [3]): > 500 nM
CN1CCC(Nc2ncnc3ccc(-c4ccc5oc(N)nc5c4)cc23)CC1 [Compound 35]	< 100 nM	< 10000 nM	< 100 nM		< 100 nM	< 10000 nM	
CN1CCC(n2cnc3ccc(-c4ccc5oc(N)nc5c4)cc3c2=O)CC1 [Compound 36]	< 100 nM	< 10000 nM	> 10000 nM		< 10000 nM	< 10000 nM	
Cn1cc(-c2cnc3ccc(-c4ccc5oc(N)nc5c4)cn23)cn1 [Compound 41]	< 100 nM	< 10000 nM			< 1000 nM	< 10000 nM	
CN1CCN(c2ccc(-c3cnc4ccc(-c5ccc6oc(N)nc6c5)cn34)cn2)CC1 [Compound 42]	< 100 nM	> 10000 nM	< 1000 nM		< 1000 nM	< 10000 nM	
Nc1nc2cc(-c3ccc4ncc(OC5CCOCC5)nc4c3)ccc2o1 [Compound 49]	< 100 nM	< 10000 nM	< 1000 nM		< 10000 nM	< 10000 nM	
Nc1nc2cc(-c3ccc4ncc(-c5ccc6nc(N)oc6c5)n4c3)ccc2o1 [Compound 50]	< 100 nM	> 10000 nM	< 100 nM		< 10000 nM	< 10000 nM	
Nc1nc2cc(-c3ccc4ncc(C(=O)N5CCOCC5)n4c3)ccc2o1 [Compound 54]		< 10000 nM		< 10000 nM	< 10000 nM	< 10000 nM	
Cc1nc2ccc(-c3ccc4oc(N)nc4c3)nn2c1-c1ccncc1 [Compound 56]	< 100 nM	< 1000 nM	< 100 nM	< 1000 nM	> 10000 nM	< 10000 nM	
Nc1nc2cc(-c3ccc4ncc(N5CCOCC5)nc4c3)ccc2o1 [Compound 64]	< 100 nM	< 10000 nM	< 100 nM	< 1000 nM	> 10000 nM	< 10000 nM	

SMILES	IC50 (PI3K α (p110α/p85α); read-out: PI3K α IC50)	IC50 (mTOR)	IC50 (PI3K γ (p110γ); read-out: PI3K γ IC50)	IC50 (PI3K β (p110β/p85α); read-out: PI3K β IC50)	IC50 (PI3K δ)	IC50 (T47D)	further results
CN1CCN(c2cnc3ccc(-c4ccc5oc(N)nc5c4)cc3n2)CC1 [Compound 65]	< 100 nM	> 10000 nM	< 1000 nM	< 100 nM	< 10000 nM	< 10000 nM	
CN1CC(C(=O)N2CCC(Nc3ncnc4ccc(-c5ccc6oc(N)nc6c5)cc34)CC2)C1 [Compound 138]	< 100 nM		< 1000 nM	< 1000 nM	< 100 nM	> 10000 nM	
CC1CN(c2cnc3ccc(-c4ccc5oc(N)nc5c4)cc3n2)CCN1 (centres unmarked) [Compound 149]	< 100 nM			< 100 nM	< 10000 nM	> 10000 nM	
CN1CCC(N(C)c2cnc3ccc(-c4ccc5oc(N)nc5c4)cc3n2)CC1 [Compound 151]					< 1000 nM	< 10000 nM	IC50 (PI3K α (p110α/p85α)): < 100 nM; IC50 (PI3K γ (p110γ); PI3K γ IC50 (nM)): < 10000 nM; IC50 (PI3K β (p110β/p85α); PI3K β IC50 (nM)): < 10000 nM
Nc1nc2cc(-c3ccc4ncc(N5CCCCC5)nc4c3)ccc2o1 [Compound 175]	< 100 nM		< 10000 nM	> 10000 nM	> 10000 nM	> 10000 nM	
Cc1cn(-c2cnc3ccc(-c4ccc5oc(N)nc5c4)cc3n2)cn1 [Compound 177]	< 100 nM		< 1000 nM	> 10000 nM	> 10000 nM	> 10000 nM	
Nc1nc2cc(-c3ccc4ncc(C(=O)Nc5cccnc5)n4c3)ccc2o1 [Compound 190]	< 100 nM		< 100 nM	> 10000 nM	< 1000 nM	> 10000 nM	
Nc1ccn([C@@H]2O[C@H](CO)[C@@H](O)C2(F)F)c(=O)n1 [gemcitabine, 2′-deoxy-2′,2′-difluorocytidine monohydrochloride (β-isomer)]							dose limiting or most common side effect [1]: Myelosuppression, including leucopenia, thrombocytopenia, and anemia
CCc1c2c(nc3ccc(OC(=O)N4CCC(N5CCCCC5)CC4)cc13)-c1cc3c(c(=O)n1C2)COC(=O)[C@]3(O)CC [irinotecan HCl, (4S)-4,11-diethyl-4-hydroxy-9-[(4-piperidinopiperidino)carbonyloxy]-1H-pyrano[3′,4′,6,7]indolizino[1,2-b]quinoline-3,14(4H,12H)-dione hydrochloride]							dose limiting or most common side effect [1]: myelosuppression, including neutropenia, and GI effects, including diarrhea
N[C@@H](Cc1ccc(N(CCCl)CCCl)cc1)C(=O)O [melphalan, 4-[bis(2-chloroethyl)amino]-L-phenylalanine]							dose limiting or most common side effect [1]: Bone marrow suppression
O.Sc1ncnc2nc[nH]c12 [mercaptopurine, 1,7-dihydro-6H-purine-6-thione monohydrate]							dose limiting or most common side effect [1]: Myelosuppression and gastrointestinal mucositis
CN(Cc1cnc2nc(N)nc(N)c2n1)c1ccc(C(=O)N[C@@H](CCC(=O)O)C(=O)O)cc1 [methotrexate]							dose limiting or most common side effect [1]: Myelosuppression (leucopenia, thrombocytopenia, and anemia) and mucositis
COc1cc([C@@H]2c3cc4c(cc3[C@@H](O[C@@H]3O[C@@H]5CO[C@@H](c6cccs6)O[C@H]5[C@H](O)[C@H]3O)[C@H]3COC(=O)[C@H]23)OCO4)cc(OC)c1O [teniposide, 4′-demethyl-epipodophyllotoxin 9[4,6-0-(R)-thenylidene-β-D-glucopyranoside]]							dose limiting or most common side effect [1]: Myelosuppression
Nc1nc2nc[nH]c2c(=S)[nH]1 [thioguanine, 2-amino-1,7-dihydro-6H-purine-6-thione]							dose limiting or most common side effect [1]: Myelosuppression, including leucopenia, thrombocytopenia, and anemia
CC[C@@]1(O)C(=O)OCc2c1cc1n(c2=O)Cc2cc3c(CN(C)C)c(O)ccc3nc2-1 [topotecan HCl, (S)-10-[(dimethylamino)methyl]-4-ethyl-4,9-dihydroxy-1H-pyrano[3′,4′,6,7]-indolizino[1,2-b]quinoline-3,14-(4H,12H)-dione monohydrochloride]							dose limiting or most common side effect [1]: myelosuppression, primarily neutropenia
CC[C@]1(O)C[C@H]2CN(CCc3c([nH]c4ccccc34)[C@@](C(=O)OC)(c3cc4c(cc3OC)N(C=O)[C@H]3[C@@](O)(C(=O)OC)[C@H](OC(C)=O)[C@]5(CC)C=CCN6CC[C@]43[C@@H]65)C2)C1 [vincristine, vincaleukoblastine, 22-oxo-, sulfate]							dose limiting or most common side effect [1]: Alopecia and neurologic effects
